For one data set, the target named is T1, human β3 (Homo sapiens, UniProt P13945).
T1 construct: the full length human β3 gene was obtained from a human genomic library; expressed in transfected cells; host or cells: CHO (Chinese hamster ovary) cells, pcDNA3 vector, geneticin selection
As to the kind of experiment: Human β3-agonist activities: cAMP in CHO cells transfected with human β3 gene. Format: cell-based. The following applies: for Emax: CHO, read-out: *Intrinsic Activity (%); for EC50 / *Intrinsic Activity (%): cAMP, 30 minutes, CHO cells expressing human β3; for EC50: read-out: ED50 (the source's name); for *Intrinsic Activity (%): relative value as compared with isoproterenol. How it is done:
Human β3-agonist activities were determined using CHO (Chinese hamster ovary) cells transfected with pcDNA3 (mfd. by Invitrogen) to which human β3 gene had been inserted. Human β3 fragment was first obtained from human adipose tissue cDNA (mfd. by Clonetech) by PCR using the primer of β3 (Krief, et al., J. Clin. Invest., 91, pp. 344-349 (1993)). The human β3 fragment obtained was then used as a probe and then the full length human β3 gene was obtained from a human genomic library (mfd. by Clonetech).
The above cells were cultured in a Ham F-12 medium supplemented with 10% fetal bovine serum (mfd. by Dainippon Pharmaceutical), 400 µg/mL geneticin (Gibco BRL), 100 U/mL penicillin and 100 µg/mL streptomycin. After placing these cells (5×10^5) into a 6-well plate and culturing them for 24 hours, they were allowed to stand on a serum-free Ham F-12 medium for 2 hours. The compound was first dissolved in DMSO, repeatedly diluted by ten times with Ham F-12 supplemented with 1 mM isobutylmethylxanthine and 1 mM ascorbic acid to a final concentration of 10^-5 to 10^-12 M, and then added to the cells.
After the cells were cultured for 30 minutes, the medium was removed followed by addition of 0.5 mL of 1 N NaOH. The medium was allowed to stand for 20 minutes and then 0.5 mL of 1 N acetic acid was added to the medium. The medium was stirred and centrifuged followed by quantitating cAMP with cAMP EIA kit (mfd. by Cayman). […]

Data set [1] is described as follows: Permeability through human small intestine epithelium (Caco-2 cell layer). The settings on record: human, Caco-2. An excerpt:
(§1) Human colon adenocarcinoma, Caco-2 cell, when cultured, spontaneously differenciates to form a cell layer consisting of a polar single layer having microvillus similar to small intestine epithelial cell. The presence of tight junction has been found out in the membrane formed. Therefore, the above cell layer can be used as a model system of human small intestine epithelium and is recognized as the simplest system to evaluate the permeability through a membrane of a drug orally administered to human. The specific experimental method is as follows.
(§2) Before the cells reached confluence, DMEM was removed and the flask was washed with PBS (phosphate buffered saline, pH 7.2, Ca, Mg free (Gibco BRL)) and treated with trypsin/EDTA to peel off the cells, which were then harvested.
(§3) After centrifugation (1000 rpm, 5 min), the cells were resuspended in DMEM at 4.4×10^5 cells/mL. The cells were seeded into Transwell cell culture chamber (mfd. by Costar) having a collagen-coated membrane filter (3 µm pores, 0.33 cm^2 growth area) at 0.15 mL/well (2×10^5 cells/cm^2, 24 well). After seeding, DMEM was renewed every other day. After culturing for 18 to 25 days, a membrane formed having a membrane resistance of at least 200 Ω · cm^2 was applied to the drug permeation experiment.
(§4) DMEMs in the cup side and base side of Transwell were removed and then replaced with a buffer for the permeation experiment (HBSS (Hanks Balanced Salt Solution, Gibco BRL), 10 mM Mes, pH 6.5 (mfd. by DOJINDO) or 10 mM Hepes, pH 7.4 (mfd. by DOJINDO) containing 25 mM glucose and 0.05% Tween 80). The cup side buffer (0.15 mL) was maintained at pH 6.5 and the base side buffer (0.8 mL) was maintained at pH 7.4. After pre-incubation at 37°C for 10 minutes, the cup side buffer was replaced with the buffer (pH 6.5) containing a drug (20-40 µM). With additionally incubating at 37°C, 80 µL aliquot of the base side buffer was sampled with the passage of time to quantitate the amount of the drug permeated into the base side buffer.
(§5) The amount of the drug contained in the base side buffer sampled with the passage of time was divided by the time to calculate the amount of the drug permeated per unit time (sec). It was then divided by the concentration of the drug added and the surface area of the membrane to calculate the permeability coefficient (Papp). That is, the permeability coefficient (Papp) is obtained by the following calculating formula.
(§6) In this connection, the quantitation of the drug was carried out with LC/MS or HPLC (detecting with fluorescence). The conditions of LC/MS and HPLC are as follows.

The next data set relates to Caco-2 cell. The description is as above. The settings on record: Caco-2 layer, cup side pH 6.5, base side pH 7.4, drug 20-40 µM, 37°C.
Text: as §1, §2, §3, §4, §5, §6

Seven molecules from patent EP1142883A1, “NOVEL HETEROCYCLIC COMPOUNDS AND DRUG COMPOSITIONS CONTAINING THE SAME” (Asahi Kasei Kabushiki Kaisha, priority 1998, dated 2000) can be followed below.

One may read the Papp A→B as the apparent permeability from the apical to the basolateral side of a cell layer. A higher Papp A→B goes with ready permeation.

T1 sequence (P13945 whole entry): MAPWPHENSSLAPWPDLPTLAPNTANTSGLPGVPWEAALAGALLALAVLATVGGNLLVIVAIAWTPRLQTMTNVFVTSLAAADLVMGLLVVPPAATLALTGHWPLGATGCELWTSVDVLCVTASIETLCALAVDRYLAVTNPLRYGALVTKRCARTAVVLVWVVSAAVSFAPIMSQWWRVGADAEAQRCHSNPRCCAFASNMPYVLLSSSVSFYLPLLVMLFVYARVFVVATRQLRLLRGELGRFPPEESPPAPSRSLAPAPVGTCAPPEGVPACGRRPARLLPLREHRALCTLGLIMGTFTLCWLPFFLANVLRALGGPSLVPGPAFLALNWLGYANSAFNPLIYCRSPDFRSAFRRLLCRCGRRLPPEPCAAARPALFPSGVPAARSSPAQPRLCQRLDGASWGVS

Consider `CS(=O)(=O)N1CCOc2ccc([C@@H](O)CNCCOc3ccc4c(c3)[nH]c3ccccc34)cc21` [Example 2, (R)-6-[2-[2-(9H-carbazol-2-yloxy)ethylamino]-1-hydroxyethyl]-4-(methylsulfonyl)-2,3-dihydro-1,4-benzoxazine], for which, at human β3, the Emax is 69% and the EC50 is 12 nM. In data set [1], this molecule gave a Papp A→B of 0.93 ×10⁻⁶ cm/s.

On to `CS(=O)(=O)N1COc2ccc([C@@H](O)CNCCOc3ccc4c(c3)[nH]c3ccccc34)cc21` [Example 3, (R)-5-[2-[2-(9H-carbazol-2-yloxy)ethylamino]-1-hydroxyethyl]-3-(methylsulfonyl)-2,3-dihydrobenzoxazole], for which, on human β3, the Emax was found to be 70% and the EC50 is 65 nM. This molecule also came in with a Papp A→B in data set [1] of 1.03 ×10⁻⁶ cm/s.

In the case of `CS(=O)(=O)N1CCCOc2ccc([C@@H](O)CNCCOc3ccc4c(c3)[nH]c3ccccc34)cc21` [Example 4, (R)-7-[2-[2-(9H-carbazol-2-yloxy)ethylamino]-1-hydroxyethyl]-5-(methylsulfonyl)-2H,3H,4H-benzo[b]1,4-oxazepine], on human β3, the Emax was 107% and the EC50 came to 620 nM. Besides, the apical-to-basolateral permeability (Papp A→B) in data set [1] is 1.93 ×10⁻⁶ cm/s.

For `CN(C)S(=O)(=O)n1c(=O)oc2ccc([C@@H](O)CNCCOc3ccc4c(c3)[nH]c3ccccc34)cc21` [Example 7, (R)-3-[(dimethylamino)sulfonyl]-5-[2-[2-(9H-carbazol-2-yloxy)ethylamino]-1-hydroxyethyl]-3-hydrobenzoxazol-2-one], on human β3, the EC50 came to 100 nM and the “*Intrinsic Activity (%)” value is on record as 76%. For the same molecule, in the data set with Caco-2 cell, the “Permeability Coefficient Papp × 10^-6 (cm/s)” value is given as 0.78 × 10^-6 cm/s.

On to `CN(C)S(=O)(=O)n1c(=S)oc2ccc([C@@H](O)CNCCOc3ccc4c(c3)[nH]c3ccccc34)cc21` [Example 8, (R)-3-[(dimethylamino)sulfonyl]-5-[2-[2-(9H-carbazol-2-yloxy)ethylamino]-1-hydroxyethyl]-3-hydrobenzoxazol-2-thione], for which, at human β3, the Emax turned out to be 99% and the EC50 turned out to be 610 nM.

`O=c1[nH]c2cc([C@@H](O)CNCCOc3ccc4c(c3)[nH]c3ccccc34)ccc2o1` [Example 10, (R)-5-[2-[2-(9H-carbazol-2-yloxy)ethylamino]-1-hydroxyethyl]-3-hydrobenzoxazol-2-one]: at human β3, the EC50 stood at 170 nM and the “*Intrinsic Activity (%)” value is on record as 99%. The “Permeability Coefficient Papp × 10^-6 (cm/s)” value in the data set with Caco-2 cell is on record as 0.54 × 10^-6 cm/s.

In the case of `CC(C)NCC(O)c1ccc(O)c(O)c1` (stereo not drawn) [Isoproterenol, reference compound], the “*Intrinsic Activity (%)” value on human β3 amounted to 100%.
